Data from patent US5460820A, “Methods for providing testosterone and optionally estrogen replacement therapy to women” (TheraTech, Inc., priority 1993, dated 1995).

Columns and labels:
[1] = in vivo; cited from earlier work
[2] = injectable esters; cited from earlier work
[3] = solubility in receiver medium; assay type: physicochemical; settings: 0.02% sodium azide solution, skin surface temperature 32°±1° C.
[4] = without some form of permeation enhancement; cited from earlier work

Question: Which hepatotoxicity [1] does the source give for C[C@]12CCC(=O)C=C1CC[C@@H]1[C@@H]2CC[C@@]2(C)[C@H]1CC[C@]2(C)O [methyl testosterone] here?
Answer: Its hepatotoxicity is “known to be hepatotoxic”.

Question: Which “fluctuations in hormone levels” value [2] does the source give for CCCCCCC(=O)O[C@H]1CC[C@H]2[C@@H]3CCC4=CC(=O)CC[C@]4(C)[C@H]3CC[C@]12C [testosterone enanthate] here?
Answer: Its value is “marked supraphysiological fluctuations in hormone levels”.

Question: For CCC(=O)O[C@H]1CC[C@H]2[C@@H]3CCC4=CC(=O)CC[C@]4(C)[C@H]3CC[C@]12C [testosterone propionate], which “fluctuations in hormone levels” value [2] is on record?
Answer: Its value is “marked supraphysiological fluctuations in hormone levels”.

Question: With C[C@]12CC[C@H]3[C@@H](CCC4=CC(=O)CC[C@@]43C)[C@@H]1CC[C@@H]2O [testosterone] as the compound, how does the “solubility in receiver medium” value [3] read?
Answer: Its value is “adequate to ensure sink conditions throughout the experiment”.

Question: And the “passage through non-scrotal skin” value [4]?
Answer: Its value is “does not pass through non-scrotal skin at practical fluxes”.
